Two molecules from BindingDB's records for doi:10.1074/jbc.M114.571216 (Dalhousie University, 2014) can be followed below.

For assay [1], the target named is T1, Oxysterol-binding protein 2 (Homo sapiens, UniProt Q969R2).
T1 sequence (Q969R2 whole entry): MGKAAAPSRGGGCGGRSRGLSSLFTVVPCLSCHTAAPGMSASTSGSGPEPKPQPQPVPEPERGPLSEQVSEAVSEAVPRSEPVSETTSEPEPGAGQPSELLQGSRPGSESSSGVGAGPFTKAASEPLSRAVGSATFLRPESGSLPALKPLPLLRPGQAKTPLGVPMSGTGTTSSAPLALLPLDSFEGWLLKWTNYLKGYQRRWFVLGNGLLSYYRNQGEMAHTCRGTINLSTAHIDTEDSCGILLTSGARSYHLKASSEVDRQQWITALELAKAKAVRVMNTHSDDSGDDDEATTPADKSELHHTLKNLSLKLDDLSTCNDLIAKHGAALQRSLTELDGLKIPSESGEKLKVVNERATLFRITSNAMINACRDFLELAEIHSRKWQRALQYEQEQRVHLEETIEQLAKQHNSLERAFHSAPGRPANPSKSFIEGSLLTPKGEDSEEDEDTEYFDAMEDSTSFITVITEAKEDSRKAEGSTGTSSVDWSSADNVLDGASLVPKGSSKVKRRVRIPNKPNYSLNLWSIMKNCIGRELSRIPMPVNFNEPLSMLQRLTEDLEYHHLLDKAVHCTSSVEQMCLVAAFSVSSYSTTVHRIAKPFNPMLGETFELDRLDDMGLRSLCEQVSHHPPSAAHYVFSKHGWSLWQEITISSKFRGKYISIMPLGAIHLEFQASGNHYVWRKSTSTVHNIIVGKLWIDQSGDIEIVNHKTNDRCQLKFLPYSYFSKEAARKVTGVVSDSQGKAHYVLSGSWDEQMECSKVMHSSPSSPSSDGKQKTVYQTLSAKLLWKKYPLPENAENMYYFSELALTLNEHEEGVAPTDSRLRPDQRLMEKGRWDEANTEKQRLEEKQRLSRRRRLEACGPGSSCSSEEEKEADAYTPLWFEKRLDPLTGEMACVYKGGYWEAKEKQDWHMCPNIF
Nature of the assay: Sterol-Binding Assay. The following applies: pH 7.4; 20 °C. The procedure:
(§1) Recombinant OSBP, ORP4L, or ORP4S (8 pmol) was incubated in 75 μl of binding buffer (10 mM HEPES (pH 7.4), 150 mM KCl, 2% (w/v) polyvinyl alcohol) containing radioactive sterols (with or without a 40-fold excess of unlabeled sterol). After 2 h at 20 °C, a 25-μl slurry of Talon resin (1:1, v/v) was added and mixed for 10 min. Talon resin and bound protein were washed three times with 300 μl of 10 mM HEPES (pH 7.4) and 150 mM KCl and sedimented by brief centrifugation. Bound proteins were eluted from the resin with 150 mM imidazole (pH 7.4), the resin was sedimented by centrifugation, and radioactivity bound to protein in the supernatant was measured by liquid scintillation counting.

The target of assay [2] is T2, Oxysterol-binding protein 2 [1-181,275-916] (Homo sapiens, UniProt Q969R2).
T2 construct: 1-181,275-916
T2 sequence (Q969R2 whole entry): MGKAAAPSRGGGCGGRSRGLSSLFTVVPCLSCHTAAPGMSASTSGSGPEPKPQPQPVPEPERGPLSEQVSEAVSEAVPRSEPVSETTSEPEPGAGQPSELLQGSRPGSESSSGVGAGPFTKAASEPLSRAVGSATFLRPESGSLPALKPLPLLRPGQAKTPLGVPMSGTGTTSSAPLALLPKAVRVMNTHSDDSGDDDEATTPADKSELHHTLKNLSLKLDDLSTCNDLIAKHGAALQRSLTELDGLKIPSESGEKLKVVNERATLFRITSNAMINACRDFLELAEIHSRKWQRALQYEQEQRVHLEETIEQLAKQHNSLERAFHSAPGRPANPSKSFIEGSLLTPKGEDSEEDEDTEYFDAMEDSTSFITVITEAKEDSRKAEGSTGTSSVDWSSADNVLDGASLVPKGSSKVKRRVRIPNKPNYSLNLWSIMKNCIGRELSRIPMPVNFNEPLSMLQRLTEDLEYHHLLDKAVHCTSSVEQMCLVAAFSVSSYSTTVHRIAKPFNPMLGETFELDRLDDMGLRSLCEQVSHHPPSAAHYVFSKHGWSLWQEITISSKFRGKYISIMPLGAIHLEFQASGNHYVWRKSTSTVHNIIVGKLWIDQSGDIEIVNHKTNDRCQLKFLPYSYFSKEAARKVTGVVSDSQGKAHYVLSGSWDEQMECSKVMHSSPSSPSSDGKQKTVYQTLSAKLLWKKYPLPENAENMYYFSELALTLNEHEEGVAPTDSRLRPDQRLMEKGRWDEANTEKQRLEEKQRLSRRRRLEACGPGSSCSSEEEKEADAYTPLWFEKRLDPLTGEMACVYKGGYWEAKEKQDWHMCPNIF
Nature of the assay: Sterol-Binding Assay. The following applies: pH 7.4; 20 °C. The procedure:
as §1

Structures are written as SMILES. pKd: −log10 of the molar value.

As usually defined, the pKd is the Kd on a negative log10 scale, so that one unit is a factor of ten. Higher therefore signals a low Kd. As for `CC(C)CCC[C@@H](C)[C@H]1CC[C@H]2[C@@H]3CC=C4C[C@@H](O)CC[C@]4(C)[C@H]3CC[C@]12C` [(1S,2R,5S,10S,11S,14R,15R)-2,15-dimethyl-14-[(2R)-6-methylheptan-2-yl]tetracyclo[8.7.0.0^{2,7}.0^{11,15}]heptadec-7-en-5-ol], the pKd was 7.17 in assay [1] and 7.22 in assay [2].

As to `C[C@H](CCCC(C)(C)O)[C@H]1CC[C@H]2[C@@H]3CC=C4C[C@@H](O)CC[C@]4(C)[C@H]3CC[C@]12C` [(1S,2R,5S,10S,11S,14R,15R)-14-[(2R)-6-hydroxy-6-methylheptan-2-yl]-2,15-dimethyltetracyclo[8.7.0.0^{2,7}.0^{11,15}]heptadec-7-en-5-ol], the pKd in assay [1] was 7.77; in assay [2], 7.64.
